The supplement of paper PMC10307832

Experiments:
Experiment in all cases: relative viability (nuclei count vs DMSO), 5 days (fraction); higher = more cells survive
Bleomycin + Trametinib = compound: CC1=C(N=C(N=C1N)[C@H](CC(=O)N)NC[C@@H](C(=O)N)N)C(=O)N[C@@H]([C@H](C2=CN=CN2)OC3C(C(C(C(O3)CO)O)O)OC4C(C(C(C(O4)CO)O)OC(=O)N)O)C(=O)N[C@H](C)[C@H]([C@H](C)C(=O)N[C@@H]([C@@H](C)O)C(=O)NCCC5=NC(=CS5)C6=NC(=CS6)C(=O)NCCC[S+](C)C)O [Bleomycin] + CC(=O)Nc1cccc(-n2c(=O)n(C3CC3)c(=O)c3c(Nc4ccc(I)cc4F)n(C)c(=O)c(C)c32)c1 [Trametinib] (partner 0.02 µM); details: main component drawn
How it was run: (§1)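 Each reported value is a median over duplicate plates. It expresses relative viability: treated-well nuclei count divided by vehicle-well nuclei count. Lung cancer cell lines in 1536-well plates were dosed by pin tool a day after seeding, alone with one drug or with a fixed anchor-drug dose plus five library-drug doses (not always all listed) in √10 steps, and nuclei were counted after 5 days.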

Bleomycin + Phenformin = compound: CC1=C(N=C(N=C1N)[C@H](CC(=O)N)NC[C@@H](C(=O)N)N)C(=O)N[C@@H]([C@H](C2=CN=CN2)OC3C(C(C(C(O3)CO)O)O)OC4C(C(C(C(O4)CO)O)OC(=O)N)O)C(=O)N[C@H](C)[C@H]([C@H](C)C(=O)N[C@@H]([C@@H](C)O)C(=O)NCCC5=NC(=CS5)C6=NC(=CS6)C(=O)NCCC[S+](C)C)O [Bleomycin] + N=C(N)NC(=N)NCCc1ccccc1 [Phenformin] (partner 250 µM); details: main component drawn
How it was run: as §1

Bleomycin + Alpelisib = compound: CC1=C(N=C(N=C1N)[C@H](CC(=O)N)NC[C@@H](C(=O)N)N)C(=O)N[C@@H]([C@H](C2=CN=CN2)OC3C(C(C(C(O3)CO)O)O)OC4C(C(C(C(O4)CO)O)OC(=O)N)O)C(=O)N[C@H](C)[C@H]([C@H](C)C(=O)N[C@@H]([C@@H](C)O)C(=O)NCCC5=NC(=CS5)C6=NC(=CS6)C(=O)NCCC[S+](C)C)O [Bleomycin] + Cc1nc(NC(=O)N2CCC[C@H]2C(N)=O)sc1-c1ccnc(C(C)(C)C(F)(F)F)c1 [Alpelisib] (partner 2 µM); details: main component drawn
How it was run: as §1

Etoposide + Vorinostat = compound: COc1cc([C@@H]2c3cc4c(cc3[C@@H](O[C@@H]3O[C@@H]5CO[C@@H](C)O[C@H]5[C@H](O)[C@H]3O)[C@H]3COC(=O)[C@H]23)OCO4)cc(OC)c1O [Etoposide] + O=C(CCCCCCC(=O)Nc1ccccc1)NO [Vorinostat] (partner 1 µM)
How it was run: as §1

| Cell Line | relative viability (Bleomycin + Trametinib; first compound 0.01 µM) | relative viability (Bleomycin + Trametinib; first compound 0.03162 µM) | relative viability (Bleomycin + Trametinib; first compound 0.1 µM) | relative viability (Bleomycin + Trametinib; first compound 0.3162 µM) | relative viability (Bleomycin + Trametinib; first compound 1 µM) | relative viability (Bleomycin + Phenformin; first compound 0.01 µM) | relative viability (Bleomycin + Phenformin; first compound 0.03162 µM) | relative viability (Bleomycin + Phenformin; first compound 0.1 µM) | relative viability (Bleomycin + Phenformin; first compound 0.3162 µM) | relative viability (Bleomycin + Phenformin; first compound 1 µM) | relative viability (Bleomycin + Alpelisib; first compound 0.01 µM) | relative viability (Bleomycin + Alpelisib; first compound 0.03162 µM) | relative viability (Bleomycin + Alpelisib; first compound 0.1 µM) | relative viability (Bleomycin + Alpelisib; first compound 0.3162 µM) | relative viability (Bleomycin + Alpelisib; first compound 1 µM) | relative viability (Etoposide + Vorinostat; first compound 0.01 µM) | relative viability (Etoposide + Vorinostat; first compound 0.03162 µM) | relative viability (Etoposide + Vorinostat; first compound 0.1 µM) | relative viability (Etoposide + Vorinostat; first compound 0.3162 µM) | relative viability (Etoposide + Vorinostat; first compound 1 µM) |
| --- | --- | --- | --- | --- | --- | --- | --- | --- | --- | --- | --- | --- | --- | --- | --- | --- | --- | --- | --- | --- |
| LK-2 | 0.474 | 0.389 | 0.449 | 0.263 | 0.254 | 0.289 | 0.281 | 0.304 | 0.23 | 0.16 | 0.579 | 0.505 | 0.478 | 0.282 | 0.251 | 0.317 | 0.374 | 0.165 | 0.158 | 0.149 |
| LOU-NH91 | 0.669 | 0.547 | 0.484 | 0.409 | 0.357 | 0.686 | 0.488 | 0.515 | 0.383 | 0.343 | 0.604 | 0.498 | 0.469 | 0.388 | 0.322 | 0.88 | 0.982 | 0.831 | 0.659 | 0.387 |
| LU99A | 0.485 | 0.485 | 0.438 | 0.22 | 0.173 | 0.636 | 0.827 | 0.673 | 0.33 | 0.159 | 0.345 | 0.332 | 0.239 | 0.137 | 0.118 | 0.489 | 0.533 | 0.23 | 0.297 | 0.108 |
| LXF-289 | 0.599 | 0.664 | 0.634 | 0.459 | 0.2 | 0.471 | 0.477 | 0.446 | 0.174 | 0.0704 | 0.923 | 1.04 | 0.9 | 0.332 | 0.162 | 0.763 | 0.744 | 0.953 | 0.547 | 0.136 |
| NCI-H23 | 0.226 | 0.321 | 0.189 | 0.161 | 0.144 | 0.518 | 0.586 | 0.357 | 0.207 | 0.17 | 0.327 | 0.298 | 0.192 | 0.127 | 0.122 | 0.633 | 0.604 | 0.316 | 0.262 | 0.145 |
| NCI-H322M | 0.477 | 0.524 | 0.479 | 0.385 | 0.504 | 0.655 | 0.74 | 0.72 | 0.377 | 0.353 | 0.738 | 0.84 | 0.81 | 0.859 | 0.559 | 0.863 | 0.962 | 0.73 | 0.728 | 0.611 |
| NCI-H358 | 0.138 | 0.138 | 0.127 | 0.138 | 0.108 | 0.343 | 0.352 | 0.325 | 0.171 | 0.147 | 0.889 | 0.799 | 0.712 | 0.481 | 0.349 | 0.663 | 0.508 | 0.411 | 0.107 | 0.0977 |
| NCI-H441 | 0.398 | 0.408 | 0.431 | 0.298 | 0.357 | 0.782 | 0.906 | 0.807 | 0.376 | 0.292 |  | 0.699 | 0.645 | 0.444 | 0.279 | 0.645 | 0.625 | 0.345 | 0.224 | 0.182 |
| NCI-H460 | 0.107 | 0.0848 | 0.0692 | 0.0357 | 0.0155 | 0.287 | 0.275 | 0.124 | 0.0345 | 0.0288 | 0.294 | 0.243 | 0.136 | 0.0356 | 0.017 | 0.688 | 0.261 | 0.286 | 0.0502 | 0.0457 |
| NCI-H520 | 0.673 | 0.608 | 0.814 | 0.547 | 0.394 | 0.315 | 0.577 | 0.4 | 0.279 | 0.35 | 0.759 | 0.796 | 0.863 | 0.543 | 0.402 | 0.777 | 0.776 | 0.878 | 0.591 | 0.461 |
| NCI-H596 | 0.674 | 0.562 | 0.423 | 0.38 | 0.379 | 0.673 | 0.728 | 0.635 | 0.343 | 0.366 | 0.377 | 0.686 | 0.395 | 0.259 | 0.269 | 0.52 | 0.672 | 0.449 | 0.591 | 0.323 |
| NCI-H647 | 0.35 | 0.217 | 0.158 | 0.114 | 0.111 | 0.209 | 0.207 | 0.148 | 0.078 | 0.0537 | 0.575 | 0.448 | 0.337 | 0.109 | 0.0917 | 0.467 | 0.631 | 0.657 | 0.181 | 0.103 |
| NCI-H650 | 0.909 | 0.993 | 0.8 | 0.352 | 0.18 | 0.342 | 0.399 | 0.384 | 0.327 | 0.202 | 0.948 | 1.03 | 0.827 | 0.456 | 0.312 | 0.438 | 0.454 | 0.241 | 0.266 | 0.181 |
